Assay results taken from patent US20240368133A1, “Compounds for the Treatment of Pain, in Particular, Neuropathic Pain, and/or Other Diseases or Disorders that are Associated with AT2R and/or AT2R Mediated Signaling” (Confo Therapeutics N.V., priority 2021, published 2024).
pIC50: −log10 of the molar value.

Tests used:
human AT1R = human AT1R (Homo sapiens (Human), UniProt P30556); assay: Counterscreen radioligand binding assay, displacement of 125I-[Sar1, Ile8]-Angiotensin II, hAT1R WT; conditions: 125I-[Sar1, Ile8]-Ang II, semi-quantitative score; for inhibition at 1 µM: compound at 1 μM, read-out: % Displaced radioligand at 1 μM; for inhibition at 10 µM: compound at 10 μM, read-out: % Displaced radioligand at 10 μM
Outline: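 Compounds displaced 0.05 nM 125I-[Sar1, Ile8]-Ang II from human AT1R in HEK-293 membranes (1 h, 25° C; Tris/MgCl2/EDTA/BSA buffer, pH 7.4). Readout was filtration and scintillation counting, with non-specific binding set by 10 μM [Sar1]-Ang II. Values are % displacement at 1 μM and […], or IC50 from eight-point four-parameter fits.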

human AT2R fused to Cb23 = human AT2R fused to Cb23 (Homo sapiens, UniProt P50052); assay: Radioligand binding assay, displacement of 125I-[Sar1, Ile8]-Angiotensin II, hAT2R Cb23; conditions: displacement of 125I-[Sar1, Ile8]-Angiotensin II, human AT2R fused to Cb23, HEK-293 cell membrane preparations; read-out: Binding affinity on hAT2R_Cb23 IC50
Outline: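 Membranes from HEK-293 cells expressing human AT2R fused to Cb23 were incubated with 0.05 nM 125I-[Sar1, Ile8]-Angiotensin II in 100 μL buffer (50 mM Tris, 5 mM MgCl2, 1 mM EDTA, 0.1% BSA, pH 7.4) for one hour at 25° C. Ligands were tested as eight-point dose-response curves in duplicate, with C21 and Angiotensin II as references.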

human AT1R, sequence (P30556 whole entry): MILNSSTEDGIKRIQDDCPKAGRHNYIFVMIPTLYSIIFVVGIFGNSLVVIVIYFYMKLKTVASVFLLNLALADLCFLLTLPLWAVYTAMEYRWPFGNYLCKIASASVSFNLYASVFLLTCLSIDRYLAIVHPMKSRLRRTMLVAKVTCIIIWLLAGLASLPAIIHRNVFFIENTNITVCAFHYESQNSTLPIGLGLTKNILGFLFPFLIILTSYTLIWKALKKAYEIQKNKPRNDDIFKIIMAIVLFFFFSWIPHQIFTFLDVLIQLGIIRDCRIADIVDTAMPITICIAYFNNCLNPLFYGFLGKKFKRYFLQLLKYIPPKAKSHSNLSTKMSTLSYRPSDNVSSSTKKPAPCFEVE
human AT2R fused to Cb23, sequence (P50052 whole entry, looked up, the tested form may be a part): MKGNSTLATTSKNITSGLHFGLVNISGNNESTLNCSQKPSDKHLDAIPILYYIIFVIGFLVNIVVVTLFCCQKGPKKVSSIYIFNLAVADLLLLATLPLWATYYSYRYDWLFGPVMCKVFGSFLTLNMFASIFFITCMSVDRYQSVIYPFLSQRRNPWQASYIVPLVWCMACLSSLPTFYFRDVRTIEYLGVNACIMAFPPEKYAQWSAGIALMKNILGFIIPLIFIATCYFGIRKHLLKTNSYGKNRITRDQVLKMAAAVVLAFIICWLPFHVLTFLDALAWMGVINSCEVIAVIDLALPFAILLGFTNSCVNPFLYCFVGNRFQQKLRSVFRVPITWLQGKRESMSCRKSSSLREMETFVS

SMILES | inhibition at 1 µM (human AT1R) [%] | inhibition at 10 µM (human AT1R) [%] | pIC50 (human AT2R fused to Cb23)
c1ccc2sc(CN3CCN(c4cc(NCC5CC5)cnc4-c4nn[nH]n4)CC3)nc2c1 [Compound A-149, 5-[4-(1,3-benzo-thiazol-2-ylmethyl)-piperazin-1-yl]-N-(cyclopropylmeth-yl)-6-(2H-tetrazol-5-yl)pyridin-3-amine] | < 30 | < 30 | 5.08
CCc1cc(OC(C)C)cc(N2CCN(Cc3cccnn3)CC2)c1-c1nn[nH]n1 [Compound A-159, 3-[[4-[3-ethyl-5-isopropoxy-2-(2H-tetrazol-5-yl)phen-yl]piperazin-1-yl]-methyl]pyridazine] | < 30 | < 30 | 5.51
CC(C)Oc1cc(N2CCN(Cc3cccnn3)CC2)c(-c2nn[nH]n2)cc1C1CC1 [Compound A-160, 3-[[4-[4-cycloprop-yl-5-isopropoxy-2-(2H-tetrazol-5-yl)-phenyl]piperazin-1-yl]methyl]pyrid-azine] | < 30 | < 30 | 5.31
CC(C)Oc1cc(C2CC2)c(-c2nn[nH]n2)c(N2CCN(Cc3cccnn3)CC2)c1 [Compound A-161, 3-[[4-[3-cycloprop-yl-5-isopropoxy-2-(2H-tetrazol-5-yl)-phenyl]piperazin-1-yl]methyl]pyrid-azine] | < 30 | < 30 | 5.84
CC(C)Cc1ccc(-c2nn[nH]n2)c(N2CCN(Cc3cccnn3)CC2)c1F [Compound A-165, 3-[[4-[2-fluoro-3-isobutyl-6-(2H-tetrazol-5-yl)phen-yl]piperazin-1-yl]-methyl]pyridazine] | < 30 | < 30 | 6.17
CNc1cc(-c2nn[nH]n2)c(N2CCN(Cc3cccnn3)CC2)cc1CC(C)C [Compound A-170, 2-isobutyl-N-meth-yl-4-[4-(pyridazin-3-ylmethyl)piper-azin-1-yl]-5-(2H-tetrazol-5-yl)aniline] | < 30 | < 30 | 4.92
CCNc1cc(-c2nn[nH]n2)c(N2CCN(Cc3cccnn3)CC2)cc1CC(C)C [Compound A-172, N-ethyl-2-isobutyl-4-[4-(pyridazin-3-ylmethyl)piperazin-1-yl]-5-(2H-tetrazol-5-yl)aniline] | < 30 | < 30 | 5.45
CC(C)Cc1ccc(-c2nn[nH]n2)c(N2CCN(Cc3cccnn3)[C@@H](C)C2)c1F [Compound A-176, 3-[[(2S)-4-[2-fluoro-3-isobutyl-6-(2H-tetrazol-5-yl)phenyl]-2-methyl-piperazin-1-yl]methyl]pyridazine] | < 30 | < 30 | 7.54
CC(C)Cc1cnc(-c2nn[nH]n2)c(N2CCN(Cc3cccnn3)[C@@H](C)C2)c1 [Compound A-177, 3-[[(2S)-4-[5-isobutyl-2-(2H-tetrazol-5-yl)-3-pyridyl]-2-methyl-piperazin-1-yl]methyl]pyridazine] | < 30 | < 30 | 6.23
CC(C)Cc1cc(F)c(-c2nn[nH]n2)c(N2CCN(Cc3cccnn3)C(C(C)C)C2)c1 (stereo not drawn) [Compound A-179, 3-[[4-[3-fluoro-5-isobutyl-2-(2H-tetrazol-5-yl)phenyl]-2-isopropyl-piperazin-1-yl]methyl]pyridazine] | < 30 | < 30 | 6.02
CC(C)Cc1cc(F)c(-c2nn[nH]n2)c(N2C[C@@H](C)N(Cc3cccnn3)[C@H](C)C2)c1 [Compound A-185, 3-[[(2R,6R)-4-[3-fluoro-5-isobutyl-2-(2H-tetrazol-5-yl)-phenyl]-2,6-dimeth-yl-piperazin-1-yl]-methyl]pyridazine] | < 30 | < 30 | 7.16
CC(C)Cc1cc(F)c(-c2nn[nH]n2)c(N2C[C@@H](C)N(Cc3cccnn3)[C@@H](C)C2)c1 [Compound A-186, 3-[[(2S,6R)-4-[3-fluoro-5-isobutyl-2-(2H-tetrazol-5-yl)-phenyl]-2,6-dimeth-yl-piperazin-1-yl]-methyl]pyridazine] | < 30 | < 30 | 7.74
CC(C)Cc1cc(F)c(-c2nn[nH]n2)c(N2C[C@H](C)N(Cc3cccnn3)[C@@H](C)C2)c1 [Compound A-187, 3-[[(2S,6S)-4-[3-fluoro-5-isobutyl-2-(2H-tetrazol-5-yl)-phenyl]-2,6-dimeth-yl-piperazin-1-yl]-methyl]pyridazine] | < 30 | < 30 | 8.14
CC(C)Cc1cc(F)c(-c2nn[nH]n2)c(N2CCN(Cc3cccnn3)C(C)C2C)c1 (stereo not drawn) [Compound A-188, 3-[[4-[3-fluoro-5-isobutyl-2-(2H-tetrazol-5-yl)phen-yl]-2,3-dimethyl-piperazin-1-yl]-methyl]pyridazine] | < 30 | < 30 | 7.86
CC(C)Cc1cc(F)c(-c2nn[nH]n2)c(N2CC3CC2CN3Cc2cccnn2)c1 (stereo not drawn) [Compound A-189, 2-[3-fluoro-5-isobutyl-2-(2H-tetrazol-5-yl)phen-yl]-5-(pyridazin-3-ylmethyl)-2,5-di-azabicyclo[2.2.1]-heptane] | < 30 | < 30 | 5.58

The next lines start with the values.

inhibition at 1 µM (human AT1R) [%] | inhibition at 10 µM (human AT1R) [%] | pIC50 (human AT2R fused to Cb23) | SMILES
< 30 | < 30 | 5.17 | CC(C)Oc1cc(F)c(-c2nn[nH]n2)c(N2CCN(Cc3nc4ccccc4c(=O)[nH]3)CC2)c1 [Compound A-151, 2-[[4-[3-fluoro-5-isopropoxy-2-(2H-tetrazol-5-yl)phen-yl]piperazin-1-yl]-methyl]-3H-quin-azolin-4-one]
< 30 | < 30 | 5.54 | CC(C)Oc1cc(C2CC2)c(-c2nn[nH]n2)c(N2CCN(Cc3nc4ccccc4c(=O)[nH]3)CC2)c1 [Compound A-152]
< 30 | < 30 | 5.07 | CC(C)Cc1cc(N2CCN(Cc3nc4ccccc4c(=O)[nH]3)CC2)c(-c2nn[nH]n2)cc1F [Compound A-153, 2-[[4-[4-fluoro-5-isobutyl-2-(2H-tetrazol-5-yl)phen-yl]piperazin-1-yl]-methyl]-3H-quin-azolin-4-one]
< 30 | < 30 | 6.80 | CC(C)Cc1cc(F)c(-c2nn[nH]n2)c(N2CCN(Cc3nc4ccccc4c(=O)[nH]3)CC2)c1 [Compound A-154, 2-[[4-[3-fluoro-5-isobutyl-2-(2H-tetrazol-5-yl)phen-yl]piperazin-1-yl]-methyl]-3H-quin-azolin-4-one]
< 30 | < 30 | 5.48 | CC(C)Cc1cc(N2CCN(Cc3cccnn3)CC2)c(-c2nn[nH]n2)cc1F [Compound A-163, 3-[[4-[4-fluoro-5-isobutyl-2-(2H-tetrazol-5-yl)phen-yl]piperazin-1-yl]-methyl]pyridazine]
< 30 | < 30 | 5.89 | CC(C)Cc1cc(F)c(-c2nn[nH]n2)c(N2CCN(Cc3cccnn3)CC2)c1 [Compound A-164, 3-[[4-[3-fluoro-5-isobutyl-2-(2H-tetrazol-5-yl)phen-yl]piperazin-1-yl]-methyl]pyridazine]
< 30 | < 30 | 7.49 | Cc1cc(CC(C)C)cc(N2CCN(Cc3cccnn3)CC2)c1-c1nn[nH]n1 [Compound A-167, 3-[[4-[5-isobutyl-3-methyl-2-(2H-tetrazol-5-yl)phen-yl]piperazin-1-yl]-methyl]pyridazine]
< 30 | < 30 | 7.60 | CC(C)Cc1cc(C2CC2)c(-c2nn[nH]n2)c(N2CCN(Cc3cccnn3)CC2)c1 [Compound A-169, 3-[[4-[3-cycloprop-yl-5-isobutyl-2-(2H-tetrazol-5-yl)phen-yl]piperazin-1-yl]-methyl]pyridazine]
< 30 | < 30 | 7.80 | CNc1cc(CC(C)C)cc(N2CCN(Cc3cccnn3)CC2)c1-c1nn[nH]n1 [Compound A-171, 5-isobutyl-N-meth-yl-3-[4-(pyridazin-3-ylmethyl)piper-azin-1-yl]-2-(2H-tetrazol-5-yl)aniline]
< 30 | < 30 | 6.49 | CC(C)Cc1cc(F)c(-c2nn[nH]n2)c(N2CCN(Cc3cccnn3)[C@H](C)C2)c1 [Compound A-175, 3-[[(2R)-4-[3-fluoro-5-isobutyl-2-(2H-tetrazol-5-yl)phenyl]-2-meth-yl-piperazin-1-yl]-methyl]pyridazine]
< 30 | < 30 | 8.40 | CC(C)Cc1cc(F)c(-c2nn[nH]n2)c(N2CCN(Cc3cccnn3)CC2C)c1 (stereo not drawn) [Compound A-180, 3-[[4-[3-fluoro-5-isobutyl-2-(2H-tetrazol-5-yl)phenyl]-3-methyl-piperazin-1-yl]methyl]pyridazine]
< 30 | < 30 | 7.73 | CC(C)Cc1cc(F)c(-c2nn[nH]n2)c(N2CCN(Cc3cccnn3)C(C)(C)C2)c1 [Compound A-182, 3-[[4-[3-fluoro-5-isobutyl-2-(2H-tetrazol-5-yl)phenyl]-2,2-dimethyl-piperazin-1-yl]methyl]pyridazine]
